Measurements taken from patent publication US11952610B2, “Digital microbiology” (priority 2016, dated 2024).
In brackets after ≈: the same amount, converted by molar mass. Entries after “also recorded” stand apart in the source; their conditions may differ. Read-outs that look alike come from different tables or passages of the source.

Key:
[1] = system: Escherichia coli (ATCC®25922™); assay: Antimicrobial susceptibility testing in water-in-oil droplets, microscope reading; format: cell-based; conditions: for MIC: Escherichia coli
Experimental: (at 30° C. for the C. albicans).

E. coli ATCC®25922 = conditions: cited from earlier work
[2] = system: Aspergillus restrictus CECT 20807; assay: Inhibition of mold growth outside the droplet aqueous phase, antifungal in oil phase; format: cell-based; conditions: 150 mg/L in the oil phase, 48 hours
[3] = droplets at 37° C., read after 4 and/or 6 h
[4] = ATCC25922, droplets at 37° C., read after 4 and/or 6 h, read-out: Observed MIC

Question: For Gentamycin, which “Growth in % of droplets” value ([1]; 0.125 mg/L, reading time 4 h) is on record?
Answer: The value was ~50% of the droplets.

Question: What about the “Growth in % of droplets” value ([1]; 0.25 mg/L, reading time 4 h) of the same compound?
Answer: The value was 30-50% of droplets.

Question: What about the “Growth in % of droplets” value ([1]; 0.5 mg/L, reading time 4 h) of the same compound?
Answer: Its value is ~30% of droplets.

Question: What about the “Growth in % of droplets” value ([1]; 0.5 mg/L, reading time 6 h) of the same compound?
Answer: Its value is 30-50% of droplets.

Question: And the “Growth in droplets (observation in words)” value (“Growth in droplets” for short) ([1]; 2 mg/L, reading time 4 h)?
Answer: The value was “No growth”.

Question: What about the “Growth in droplets” value ([1]; 2 mg/L, reading time 6 h) of the same compound?
Answer: Its value is “No growth”.

Question: And the “Observed MIC” value [1, 3]?
Answer: Its value is 2 µg/mL.

Question: And the “Expected MIC (CLSI)” value (E. coli ATCC®25922)?
Answer: Its value is 0.25 to 1 µg/mL.

Question: With `CCn1cc(C(=O)O)c(=O)c2ccc(C)nc21` [Nalidixic acid] as the compound, how does the “Growth in % of droplets” value ([1]; 1 mg/L, reading time 6 h) read?
Answer: Its value is “Growth in about 50% of”.

Question: And the “Growth in droplets” value ([1]; 2 mg/L, reading time 6 h)?
Answer: Its value is “One or few small”.

Question: What about the “Growth in droplets” value ([1]; 4 mg/L, reading time 4 h) of the same compound?
Answer: Its value is “One or few small”.

Question: What about the “Growth in droplets” value ([1]; 4 mg/L, reading time 6 h) of the same compound?
Answer: Its value is “No growth”.

Question: And the MIC ([1]; ATCC25922, 6 h, read-out: Observed MIC)?
Answer: Its MIC is 4 µg/mL (≈ 17.2 µM).

Question: What about the “Expected MIC (CLSI)” value (E. coli ATCC®25922) of the same compound?
Answer: Its value is 1 to 4 µg/mL.

Question: What does the source list for `CCN1CCN(C(=O)N[C@@H](C(=O)N[C@@H]2C(=O)N3[C@@H]2SC(C)(C)[C@@H]3C(=O)O)c2ccccc2)C(=O)C1=O` [Piperacillin]?
Answer: Growth in droplets (observation in words) ([1]; 1 mg/L, reading time 4 h): Limited growth in droplets with cells forming filaments; Growth in droplets (observation in words) ([1]; 2 mg/L, reading time 4 h): No growth; MIC [1, 4]: 2 µg/mL (≈ 3.86 µM); Expected MIC (CLSI) (E. coli ATCC®25922): 1 to 4 µg/mL

Question: Which results are given for `O=C(N[C@H](CO)[C@H](O)c1ccc([N+](=O)[O-])cc1)C(Cl)Cl` [Chloramphenicol]?
Answer: Growth in % of droplets ([1]; 0.5 mg/L, reading time 4 h): 30-50% of droplets; Growth in % of droplets ([1]; 1 mg/L, reading time 4 h): 20-30% of droplets; Growth in % of droplets ([1]; 1 mg/L, reading time 6 h): 30-50% of droplets; Growth in droplets (observation in words) ([1]; 2 mg/L, reading time 4 h): No growth; Growth in droplets (observation in words) ([1]; 2 mg/L, reading time 6 h): Limited growth in few; Growth in droplets (observation in words) ([1]; 4 mg/L, reading time 4 h): No growth; Growth in droplets (observation in words) ([1]; 4 mg/L, reading time 6 h): No growth; Growth in droplets (observation in words) ([1]; 8 mg/L, reading time 4 h): No growth; MIC [1, 4]: 2 to 4 µg/mL (≈ 6.19 to 12.4 µM); Expected MIC (CLSI) (E. coli ATCC®25922): 2 to 8 µg/mL

Question: For `O=C1OC2(c3cc(I)c(O)c(I)c3Oc3c2cc(I)c(O)c3I)c2c(Cl)c(Cl)c(Cl)c(Cl)c21` [rose bengal, 4,5,6,7-tetrachloro-2′,4′,5′,7′-tetraiodofluorescein], which “Mold growth outside the aqueous phase” value [2] is on record?
Answer: Its value is “the hyphae spreading was inhibited and mold growth was confined within the droplet; also recorded: inhibition of mold growth outside the aqueous phase”.

Question: Which “Growth in droplets” value ([1]; 0.125 mg/L, reading time 4 h) does the source give for `COc1cc(Cc2cnc(N)nc2N)cc(OC)c1OC` [Trimethoprim] here?
Answer: The value was “Limited growth in few”.

Question: What about the “Growth in droplets” value ([1]; 0.25 mg/L, reading time 4 h) of the same compound?
Answer: The value was “Limited growth in few”.

Question: What about the “Growth in % of droplets” value ([1]; 0.25 mg/L, reading time 6 h) of the same compound?
Answer: Its value is “Growth in 20-30% of”.

Question: And the “Growth in droplets” value ([1]; 0.5 mg/L, reading time 4 h)?
Answer: Its value is “One or few small”.

Question: And the “Growth in droplets” value ([1]; 0.5 mg/L, reading time 6 h)?
Answer: The value was “Limited growth in few”.

Question: And the “Growth in droplets” value ([1]; 1 mg/L, reading time 4 h)?
Answer: The value was “No growth”.

Question: And the “Growth in droplets” value ([1]; 1 mg/L, reading time 6 h)?
Answer: Its value is “Limited growth in few”.

Question: What about the “Growth in droplets” value ([1]; 2 mg/L, reading time 4 h) of the same compound?
Answer: Its value is “No growth”.

Question: What about the “Growth in droplets” value ([1]; 2 mg/L, reading time 6 h) of the same compound?
Answer: Its value is “No growth (one small”.

Question: What about the MIC ([1]; ATCC25922, reading time 4 h, read-out: Observed MIC (4 h)) of the same compound?
Answer: Its MIC is 1 µg/mL (≈ 3.44 µM).

Question: What about the MIC ([1]; ATCC25922, reading time 6 h, read-out: Observed MIC (6 h)) of the same compound?
Answer: The MIC was 2 µg/mL (≈ 6.89 µM).

Question: And the “Expected MIC (CLSI)” value (E. coli ATCC®25922)?
Answer: Its value is 0.5 to 2 µg/mL.

Question: With Colistin as the compound, how does the “Growth in % of droplets” value ([1]; 0.125 mg/L, reading time 4 h) read?
Answer: The value was “Growth in 10-20% of”.

Question: And the “Growth in droplets” value ([1]; 0.25 mg/L, reading time 4 h)?
Answer: Its value is “Limited growth in few”.

Question: What about the “Growth in % of droplets” value ([1]; 0.25 mg/L, reading time 6 h) of the same compound?
Answer: The value was “Growth in 20-30% of”.

Question: What about the “Growth in droplets” value ([1]; 0.5 mg/L, reading time 4 h) of the same compound?
Answer: The value was “Growth in 1 droplet”.

Question: What about the “Growth in droplets” value ([1]; 1 mg/L, reading time 6 h) of the same compound?
Answer: Its value is “No growth”.

Question: What about the “Observed MIC” value [1, 3] of the same compound?
Answer: Its value is 1 µg/mL.

Question: And the “Expected MIC (CLSI)” value (E. coli ATCC®25922)?
Answer: Its value is 0.5 to 2 µg/mL.

Question: For `CN(C)[C@@H]1C(O)=C(C(N)=O)C(=O)[C@@]2(O)C(O)=C3C(=O)c4c(O)cccc4[C@@](C)(O)[C@H]3C[C@@H]12` [Tetracycline], which “Growth in % of droplets” value ([1]; 0.25 mg/L, reading time 6 h) is on record?
Answer: The value was “Growth in 20-30% of”.

Question: And the MIC [1, 4]?
Answer: The MIC was 0.5 µg/mL (≈ 1.13 µM).
